Source: patent publication US9211310B2, “Use of a Chinese medicine composition in preparing medicaments for treating secondary prevention of myocardial infarction” (TASLY PHARMACEUTICAL GROUP CO., LTD, priority 2010, dated 2015)

System: patients after acute myocardial infarction
Assay: Life quality, Seattle Angina Questionnaire (SAQ), same clinical trial
Type: in vivo, human
Conditions: FAS; 6 months after treatment
From the text: 3508 patients who were in accordance with the diagnostic standards of AMI for 28 days to 2 years and differentiated as Qi deficiency and blood stagnation syndrome by TCM were studied. 0.5 g Chinese medicine composition prepared by the method of EXAMPLE 1 (Coded as QSYQ) was administrated half an hour after meal, 3 times per day.
There were 19 questions in the Seattle angina questionnaire (SAQ), including 5 parts: physical limitation (PL), anginal stability (AS), anginal frequency (AF), treatment satisfaction (TS) and disease perception (DP). After being given necessary explanation by doctors, the questions were answered independently by patients.
They included the overall survival time, angina pectoris score, TCM symptom score and life quality score, where angina pectoris score, TCM symptom score and life quality score were evaluated at randomization, in 1st, 3rd, 6th, 9th, 12th month after treatment and 18th month after follow-up.
All evaluation results of SAQ were described during the period of observation, and Wilcoxon rank sum test was used for inter-group comparison.
The evaluation results in the SAQ were depicted in different observations, and inter-group comparison was tested by Wilcoxon Rank-sum test.

## CC(=O)Oc1ccccc1C(=O)O [Control group, aspirine]
  SAQ 4th question, 1-3 times per day: number of patients: 82
  SAQ 4th question, <1 time per week: % of patients: (11.98%)
  SAQ 4th question, <1 time per week: number of patients: 209
  SAQ 4th question, Not used: % of patients: (58.37%)
  SAQ 4th question, Not used: number of patients: 1018
  SAQ 4th question, ≧3 times per week: % of patients: (7.28%)
  SAQ 4th question, ≧3 times per week: number of patients: 127
  SAQ 4th question, ≧4 times per day: % of patients: (0.11%)
  SAQ 4th question, ≧4 times per day: number of patients: 2
  SAQ 5th question, 1-2 times per week: % of patients: (26.38%)
  SAQ 5th question, 1-2 times per week: number of patients: 460
  SAQ 5th question, 1-3 times per day: % of patients: (11.53%)
  SAQ 5th question, 1-3 times per day: number of patients: 201
  SAQ 5th question, <1 time per week: % of patients: (28.10%)
  SAQ 5th question, <1 time per week: number of patients: 490
  SAQ 5th question, No onset: % of patients: (4.30%)
  SAQ 5th question, No onset: number of patients: 75
  SAQ 5th question, ≧3 times per week: % of patients: (28.84%)
  SAQ 5th question, ≧3 times per week: number of patients: 503
  SAQ 5th question, ≧4 times per day: % of patients: (0.86%)
  SAQ 5th question, ≧4 times per day: number of patients: 15
  SAQ 6th question, Dissatisfied: % of patients: (0.17%)
  SAQ 6th question, Dissatisfied: number of patients: 3
  SAQ 6th question, Highly satisfied: % of patients: (21.62%)
  SAQ 6th question, Highly satisfied: number of patients: 377
  SAQ 6th question, Mostly dissatisfied: % of patients: (1.95%)
  SAQ 6th question, Mostly dissatisfied: number of patients: 34
  SAQ 6th question, Mostly satisfied: % of patients: (55.73%)
  SAQ 6th question, Mostly satisfied: number of patients: 972
  SAQ 6th question, Partly satisfied: % of patients: (20.53%)
  SAQ 6th question, Partly satisfied: number of patients: 358
  SAQ 7th question, Dissatisfied: % of patients: (0.11%)
  SAQ 7th question, Dissatisfied: number of patients: 2
  SAQ 7th question, Highly satisfied: % of patients: (25.03%)
  SAQ 7th question, Highly satisfied: number of patients: 436
  SAQ 7th question, Mostly dissatisfied: % of patients: (1.32%)
  SAQ 7th question, Mostly dissatisfied: number of patients: 23
  SAQ 7th question, Mostly satisfied: % of patients: (58.21%)
  SAQ 7th question, Mostly satisfied: number of patients: 1014
  SAQ 7th question, Partly satisfied: % of patients: (15.33%)
  SAQ 7th question, Partly satisfied: number of patients: 267
  SAQ Question 1-1 Mildly limited, number of patients: 29
  SAQ Question 1-1 Mildly limited, percent of patients: (1.66%)
  SAQ Question 1-1 Moderately limited, number of patients: 4
  SAQ Question 1-1 Moderately limited, percent of patients: (0.23%)
  SAQ Question 1-1 Not limited, number of patients: 1638
  SAQ Question 1-1 Not limited, percent of patients: (93.92%)
  SAQ Question 1-1 Other reasons, number of patients: 3
  SAQ Question 1-1 Other reasons, percent of patients: (0.17%)
  SAQ Question 1-1 Severely limited, number of patients: 1
  SAQ Question 1-1 Severely limited, percent of patients: (0.06%)
  SAQ Question 1-1 Slightly limited, number of patients: 69
  SAQ Question 1-1 Slightly limited, percent of patients: (3.96%)
  SAQ Question 1-2 Mildly limited, number of patients: 27
  SAQ Question 1-2 Mildly limited, percent of patients: (1.55%)
  SAQ Question 1-2 Moderately limited, number of patients: 8
  SAQ Question 1-2 Moderately limited, percent of patients: (0.46%)
  SAQ Question 1-2 Not limited, number of patients: 1615
  SAQ Question 1-2 Not limited, percent of patients: (92.60%)
  SAQ Question 1-2 Other reasons, number of patients: 6
  SAQ Question 1-2 Other reasons, percent of patients: (0.34%)
  SAQ Question 1-2 Severely limited, number of patients: 1
  SAQ Question 1-2 Severely limited, percent of patients: (0.06%)
  SAQ Question 1-2 Slightly limited, number of patients: 87
  SAQ Question 1-2 Slightly limited, percent of patients: (4.99%)
  SAQ Question 1-6: Mildly limited, patients (%): (16.49%)
  SAQ Question 1-6: Moderately limited, patients (%): (11.78%)
  SAQ Question 1-6: Not limited, patients (%): (34.20%)
  SAQ Question 1-6: Other reasons, patients (%): (0.98%)
  SAQ Question 1-6: Severely limited, patients (%): (3.85%)
  SAQ Question 1-6: Slightly limited, patients (%): (32.70%)
  SAQ Question 1-7: Mildly limited, patients (%): (21.23%)
  SAQ Question 1-7: Moderately limited, patients (%): (13.48%)
  SAQ Question 1-7: Not limited, patients (%): (14.52%)
  SAQ Question 1-7: Other reasons, patients (%): (3.53%)
  SAQ Question 1-7: Severely limited, patients (%): (15.33%)
  SAQ Question 1-7: Slightly limited, patients (%): (31.93%)
